Data on 12 molecules can be found in patent US20100160443A1, “COMPOUNDS USEFUL FOR TREATING NEUROLOGICAL DISORDERS” (Yissum Research Development Company of The Hebrew …, priority 2003, published 2010).

For data set [1] the following is noted: cited from earlier work.
The test system of data set [2] is maximal electroshock (MES) test. Conditions: rat, cited from earlier work.
The test system of data set [3] is tactile allodynia in rats with SNL neuropathy. Conditions: i.p., rat; literature data (footnoted); cited from earlier work.
Data set [4] has the same test system. Kind of data set: Tactile allodynia (von Frey filaments) in the spinal nerve ligation (SNL) model of neuropathic pain. Conditions: for ED50: Rattus norvegicus, 1 h, read-out: ED50 (tactile allodynia threshold). It counts as in vivo, rat. On the procedure: The effect on neuropathic pain (tactile allodynia) was measured 5-6 days following operation as disclosed above. Rats responding to mechanical stimuli of 10 g or less (in the operated leg) were eligible for the study and were included in the drug administration regime.
Briefly, under ketamine-xylazine anesthesia the rat was placed in a prone position and the left paraspinal muscles were separated from spinous processes at the L4-S2 level. Part of the L6 transverse process was removed and the L4-L6 spinal nerves were identified. The L5-L6 spinal nerves were isolated and tightly ligated and cut, distal to the dorsal root ganglion and proximal to the formation of the sciatic nerve. Following complete homeostasis the wound was sutured.
A volume of 4 ml/kg (volume of injected suspension/rat body weight) was then injected to the rats. […] The three drugs and the control vehicle were administered i.p. (intraperitoneally) to rats at postoperative days 7, 14 and 21 in a double blind randomized crossover manner.
The rat was placed on a metal mesh floor covered with a transparent plastic dome, a period of acclimatization was allowed prior to testing. VFFs were applied from underneath the mesh floor to the plantar surface of the foot. Each trial consisted of repeated applications of each of the VFFs in an ascending order for 5 times, each for a period of 1 second. testing between two consecutive ascending VFFs was separated by period of 2 min. If the rat withdrew the foot at least 3 times out of 5 at a specific VFF no further ascending filaments were tested and this filament was considered as a withdrawal threshold (response). Mechanical stimulus trials with the series of ascending VFF were repeated 2 times for a given time point. The repeated measurements were averaged and taken as the paw withdrawal threshold on a given time point.
The absolute threshold and the difference in the allodynic threshold (time point minus baseline) values were tested using Mann-Whitney Test and Kruskal-Wallis Nonparametric test (two tailed) followed by Dunn's Multiple comparison test. The ED50 (median effective dose) was calculated by using Probit analysis method.
Briefly, under ketamine-xylazine anesthesia (85 mg kg^−1, i.p and 13 mg kg^−1, i.p, respectively) rats were placed in a prone position and paraspinal muscles on the left were separated from the L4-S2 spinous processes. Part of the L6 transverse process was removed and the underlying L4-L6 spinal nerves were identified. The L5 and L6 spinal nerves were isolated, tightly ligated with 5-0 silk, and cut just distal to the ligature. The ligature was approximately 8 mm distal to the corresponding dorsal root ganglion (DRG). Following complete homeostasis the wound was sutured in layers, the skin closed with Michel clips, topical bacteriostatic power was applied, and 20000 units of duplo-penicillin was injected intramuscularly (i.m.).
We used a set of 9 nylon von Frey monofilaments (VFF, Semmes-Weinstein monofilaments, Stoelting, Wood Dale, Ill., USA) to quantify foot withdrawal in response to normally innocuous tactile stimuli. […] Forces were calibrated by lowering filaments onto the pan of an electronic balance until they just bent.
Rats were placed on a raised wire mesh screen (gaps 4 mm×4 mm), which allowed access to the plantar surface of the hindpaw from below. They were covered with a transparent plastic dome, 13 cm high, which prevented rearing on the hindlimbs. A period of 20 min was allowed for acclimation prior to sensory testing. The mid-plantar hindpaw skin just caudal to the footpads, half way between medial and lateral edges of the foot, was subjected to a series of 5 brief probes, spaced at about 1 s. Each such stimulus was sufficient to just bend the filament. Testing began with the filament with the weakest initial bending force (0.6 g). […] Response threshold was the bending force of the first monofilament in the series that evoked a criterion ≧⅗ responses.

Data set [5] relates to neural tube defects (NTDs). Conditions: cited from earlier work.
The test system of data set [6] is maximal electroshock (MES) test. Kind of data set: Anticonvulsant activity, maximal electroshock (MES) test. It counts as in vivo. Conditions: different study, data not shown. The text has this:
Pain 73, 223-230); Blom, 1962 (BLOM, S. (1962). Trigeminal neuralgia: its treatment with a new anticonvulsant drug. Lancet; 1, 839-840); Rogawski & Loscher, 2004b (ROGAWSKI, M. A., & LOSCHER, W. (2004b). The neurobiology of antiepileptic drugs for the treatment of nonepileptic conditions. Nat. Med., 10, 685-692)). The availability of ED50 data for a series of new anticonvulsant isomers and analogues of VPD (valpromide) provides an opportunity for testing this hypothesis. […] Philadelphia: Lippincott Williams & Wilkins)).

Data set [7] deals with motor performance (rotarod test). The data set can be described thus: Neurological motor dysfunction tests (accelerating rotarod, observation for sedation). The method, then: On the day of testing, a baseline response was obtained, and rats were subsequently administered drug or vehicle. […] In addition, we examined our rats individually for signs of motor dysfunction and sedation as assessed by posture and gate during spontaneous and induced movement, grooming, chewing, stepping reflex, and startle reflex evoked by tapping on the cage.
For each drug and dose, attenuation of tactile allodynia (threshold measured in g) was measured. […] These areas under the response curve values for every group of rats per dose were evaluated against vehicle treatment using the nonparametric Wilcoxon one tailed test (dose of drug tested vs. vehicle on the same treatment). […] A p value <0.05 was considered statistically significant.
(In general: The rotarod test checks motor coordination on a turning rod.)

Where [8] appears, read: p.o., taken from previous studies.
Setting [9] is: i.p., rat, 60 min post injection, DID at 120 min.

Entries after “also recorded” stand apart in the source; their conditions may differ. Read-outs that look alike come from different tables or passages of the source. Marks after values point to notes of the source that are not given here.

As a reminder, the ED50 is the dose that gives a 50% effect, or the effect in half of the subjects.

Consider `NC(=O)N1c2ccccc2C=Cc2ccccc21` [CBZ, carbamazepine], for which the Brain-to-plasma ratio in data set [1] (literature data) was 1.0^i. For the same molecule, the MES-ED50 in data set [2] (setting [8]) is given as 5.4^a mg kg^−1. Also, in data set [3], the SNL-ED50 is reported as >30^c mg kg^−1.

Turning to `CC(C)C(C(=O)O)C(C)C` [DIA, diisopropylacetic acid], the “antiallodynic effect / effectiveness for treating neuropathic pain” value (shortened to “antiallodynic effect / effectiveness”) in data set [4] (rat, in vivo) was “effective for treating neuropathic pain”. Moreover, in data set [4] (rat, in vivo, ip), the SNL-ED50 is over 300 mg/kg, the “lowest effective dose (significant increase of the allodynic threshold vs vehicle)” value is 300 mg/kg and the “rats regarded as protected at the highest dose” value is reported as 25%.

Turning to `NC(=O)OCC(COC(N)=O)c1ccccc1` [FBM, felbamate], the Brain-to-plasma ratio in data set [1] (literature data) was 0.64^f. Besides, the MES-ED50 in data set [2] (setting [8]) is 25.3^a mg kg^−1. Moreover, the SNL-ED50 in data set [3] is on record as >600^d mg kg^−1.

For the molecule `NCC1(CC(=O)O)CCCCC1` [GBP, gabapentin], in data set [1] (rat, in vivo), the Brain-to-plasma ratio is listed as 0.85^e. Further, in data set [2] (in vivo, po), the MES-ED50 is 14.8^a mg kg^−1. Also, the SNL-ED50 in data set [3] is reported as 34^d mg kg^−1.

On to `Nc1nnc(-c2cccc(Cl)c2Cl)c(N)n1` [LTG, lamotrigine], for which the Brain-to-plasma ratio in data set [1] (literature data) is reported as 0.4^h. For the same molecule, the MES-ED50 in data set [2] (setting [8]) was 1.3^a mg kg^−1. The SNL-ED50 in data set [3] is listed as >100^d mg kg^−1.

As for `CNC(=O)C1C(C)(C)C1(C)C` [M-TMCD, N-methyl-2,2,3,3-tetramethylcyclopropanecarboxamide], the teratogenicity result in data set [5] (in vivo) is listed as “lack of teratogenicity”. Also, in data set [4] (ip), the ED50 came out at 41 mg/kg. Also, the “antiallodynic effect / effectiveness” value in data set [4] (rat, in vivo) was “effective for treating neuropathic pain”. Besides, in data set [4] (rat, in vivo, ip), the “dose dependence of the antiallodynic effect” value (“dose dependence” below) is recorded as “in a dose dependent manner” and the “time of maximal effect after administration” value (shortened to “time of maximal effect”) stood at 60 min.

As for `CCCC(CCC)C(=O)NC` [MVPD, N-methyl-valpromide, reference compound], in data set [4] (setting [9]), the SNL-ED50 was over 120 mg/kg. Further, the MES-ED50 in data set [2] (setting [8]) is 65 mg/kg.

`CC1(C)C(C(=O)O)C1(C)C` [TMCA, 2,2,3,3-tetramethylcyclopropanecarboxylic acid]: the “anticonvulsant activity in the rat-MES test” value in data set [6] is on record as “without any anticonvulsant activity”. Moreover, the “antiallodynic effect / effectiveness” value in data set [4] (SNL model, rat) is recorded as “exhibit antiallodynic effect”.

For the molecule `CC1(C)C(C(N)=O)C1(C)C` [TMCD, 2,2,3,3-tetramethylcyclopropanecarboxamide], the “anticonvulsant activity in the rat-MES test” value in data set [6] is “without any anticonvulsant activity”. The ED50 in data set [4] (ip) amounted to 84.5 mg/kg. Also, the “antiallodynic effect / effectiveness” value in data set [4] (rat, in vivo) is “exhibit antiallodynic effect; also recorded: effective for treating neuropathic pain”. Besides, in data set [4] (rat, in vivo, ip), the “dose dependence” value is reported as “in a dose dependent manner” and the “time of maximal effect” value turned out to be 60 min.

The molecule `CCC(C)C(CC)C(=O)O` (stereo not shown) [VCA, 2-ethyl-3-methyl-pentanoic acid] yielded an SNL-ED50 in data set [4] (setting [9]) of over 300 mg/kg.

For the molecule `CCC(C)C(CC)C(N)=O` (stereo not shown) [VCD, 2-ethyl-3-methyl-pentanoic acid amide], the “neurological motor dysfunction or sedation at the highest drug dose tested” value in data set [7] (highest drug dose tested, normal rats) is recorded as “not sufficient to cause neurological motor dysfunction or sedation”. Also, in data set [5] (literature), the teratogenicity entry is listed as “distinctly less teratogenic than VPA”. The ED50 in data set [4] (ip) stood at 52.3 mg/kg. Further, the “dose dependence” value in data set [4] (i.p., rat) is recorded as “in a dose dependent manner”. Also, the “antiallodynic effect / effectiveness” value in data set [4] (rat, in vivo) is “effective for treating neuropathic pain”. Also, in data set [4] (rat, in vivo, ip), the SNL-ED50 was 52 mg/kg and the “time of maximal effect” value is on record as 60 min. Further, the MES-ED50 in data set [2] (setting [8]) is given as 29^c mg kg^−1.

With `CCCC(CCC)C(N)=O` [VPD, valpromide, reference compound], in data set [7] (rat, in vivo), the “neurological motor dysfunction or sedation at the highest drug dose tested” value was “not sufficient to cause neurological motor dysfunction or sedation”. Besides, the Brain-to-plasma ratio in data set [1] (literature data) is 0.84^c. In data set [4] (setting [9]), this molecule came in with an SNL-ED50 of 61 mg/kg. Further, in data set [2] (setting [8]), the MES-ED50 is reported as 32^b mg kg^−1.
